Here are results for 9 molecules from patent US8263598B2, “Substituted sulfonamide compounds” (Gruenenthal GmbH, priority 2008, dated 2012).

Each structure is given as a SMILES string.

What is called inhibition is the drop in the measured response relative to a control, in per cent.

In assay [1] the target is T1, B1R receptor of rats (rB1R) (Rattus norvegicus, UniProt P97583).
T1 construct: host or cells: CHO K1 cells
T1 sequence (P97583 1-337): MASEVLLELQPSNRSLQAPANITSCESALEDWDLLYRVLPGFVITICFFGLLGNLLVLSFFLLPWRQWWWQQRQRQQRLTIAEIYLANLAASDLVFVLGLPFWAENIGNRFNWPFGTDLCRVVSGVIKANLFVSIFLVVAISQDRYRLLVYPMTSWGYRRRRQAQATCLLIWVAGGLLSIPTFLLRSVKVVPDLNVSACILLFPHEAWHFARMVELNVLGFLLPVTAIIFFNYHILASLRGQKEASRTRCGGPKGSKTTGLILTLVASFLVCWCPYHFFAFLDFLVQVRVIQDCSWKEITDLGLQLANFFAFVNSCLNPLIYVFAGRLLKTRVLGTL
Nature of the assay: FLIPR Ca2+ assay on rat bradykinin 1 receptor (CHO K1 rB1R cells). It is filed as cell-based. The conditions noted are these: test substance 10 μM; CHO K1 cells with B1R gene of rats; agonist Des-Arg9-bradykinin 100 nM; compared to maximum achievable inhibition. The procedure, abridged: (§1)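 Values are percent inhibition of agonist-evoked Ca²⁺ influx, measured by Fluo-4 fluorescence peak in FLIPR relative to maximum achievable inhibition. Compound at 10 μM was preincubated 10 min on B1R-transfected CHO K1 cells before challenge with 0.5 nM Lys-Des-Arg9-bradykinin (human) or 100 nM Des-Arg9-bradykinin (rat).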

For assay [2], the target named is T2, human B1R receptor (hB1R) (Homo sapiens, UniProt P46663).
T2 construct: host or cells: CHO K1 cells
T2 sequence (P46663 1-353): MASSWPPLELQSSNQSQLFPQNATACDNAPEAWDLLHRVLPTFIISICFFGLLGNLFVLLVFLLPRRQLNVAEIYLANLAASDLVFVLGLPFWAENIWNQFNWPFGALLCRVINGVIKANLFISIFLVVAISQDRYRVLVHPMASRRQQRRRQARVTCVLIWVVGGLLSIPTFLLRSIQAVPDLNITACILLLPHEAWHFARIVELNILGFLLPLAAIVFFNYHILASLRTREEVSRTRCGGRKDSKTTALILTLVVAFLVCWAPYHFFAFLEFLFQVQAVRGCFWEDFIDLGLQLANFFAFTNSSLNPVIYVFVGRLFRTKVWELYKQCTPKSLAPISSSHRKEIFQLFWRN
As to the kind of experiment: FLIPR Ca2+ assay on human bradykinin 1 receptor (CHO K1 hB1R cells). The following applies: test substance 10 μM; CHO K1 cells with human B1R gene; agonist Lys-Des-Arg9-bradykinin 0.5 nM; compared to maximum achievable inhibition. It is filed as cell-based. In short, it runs like this:
as §1

As to `CCC1c2cccn2CCN1C(=O)COCCN(C)S(=O)(=O)c1c(C)cc(OC)c(C)c1C` (stereo not drawn) [Example 152, N-(2-(2-(1-ethyl-3,4-dihydropyrrolo[1,2-a]pyrazin-2(1H)-yl)-2-oxoethoxy)ethyl)-4-methoxy-N,2,3,6-tetramethylbenzenesulfonamide], the inhibition at 10 µM in assay [1] and in assay [2] was 102% each time.

Consider `COc1c(C)cc(S(=O)(=O)N(C)CCOCC(=O)N2CCn3cccc3C2C)c(C)c1C` (stereo not drawn) [Example 28, 4-methoxy-N,2,3,5-tetramethyl-N-(2-(2-(1-methyl-3,4-dihydropyrrolo[1,2-a]pyrazin-2(1H)-yl)-2-oxoethoxy)ethyl)benzenesulfonamide], for which the inhibition at 10 µM in assay [1] came to 81%; in assay [2] it was 37%.

Regarding `Cc1cc(C)c(S(=O)(=O)N(C)CCOCC(=O)N2CCn3c(CN4CCOCC4)ccc3C2c2ccccc2)c(C)c1` (stereo not drawn) [Example 142, N,2,4,6-tetramethyl-N-(2-(2-(6-(morpholinomethyl)-1-phenyl-3,4-dihydro-pyrrolo[1,2-a]pyrazin-2(1H)-yl)-2-oxoethoxy)ethyl)benzenesulfonamide], the inhibition at 10 µM in assay [1] was determined as 101%; in assay [2] it was 103%.

In the case of `COc1cc(C)c(S(=O)(=O)N(C)CCOCC(=O)N2CCn3cccc3C2c2ccc(F)c(F)c2)c(C)c1C` (stereo not drawn) [Example 85, N-(2-(2-(1-(3,4-difluorophenyl)-3,4-dihydropyrrolo[1,2-a]pyrazin-2(1H)-yl)-2-oxoethoxy)ethyl)-4-methoxy-N,2,3,6-tetramethylbenzenesulfonamide], the inhibition at 10 µM in assay [1] amounted to 92%; in assay [2], 99%.

As for `COc1c(C)cc(S(=O)(=O)N(C)CCOCC(=O)N2CCn3cccc3C2c2cccc(F)c2)c(C)c1C` (stereo not drawn) [Example 35, N-(2-(2-(1-(3-fluorophenyl)-3,4-dihydropyrrolo[1,2-a]pyrazin-2(1H)-yl)-2-oxoethoxy)ethyl)-4-methoxy-N,2,3,5-tetramethylbenzenesulfonamide], the inhibition at 10 µM was found to be 48% in assay [1] and 81% in assay [2].

Consider `COc1cc(C)c(S(=O)(=O)N(C)CCOCC(=O)N2CCn3c(CN(C)C)ccc3C2Cc2ccccc2)c(C)c1C` (stereo not drawn) [Example 151, N-(2-(2-(1-benzyl-6-((dimethylamino)methyl)-3,4-dihydropyrrolo[1,2-a]pyrazin-2(1H)-yl)-2-oxoethoxy)ethyl)-4-methoxy-N,2,3,6-tetramethylbenzene-sulfonamide], for which the inhibition at 10 µM in assay [1] stood at 103%; in assay [2] it was 102%.

Turning to `CCC1c2ccc(CN(C)C)n2CCN1C(=O)COCCN(Cc1ccccc1)S(=O)(=O)c1c(C)cc(OC)cc1C` (stereo not drawn) [Example 131, N-benzyl-N-(2-(2-(6-((dimethylamino)methyl)-1-ethyl-3,4-dihydropyrrolo[1,2-a]pyrazin-2(1H)-yl)-2-oxoethoxy)ethyl)-4-methoxy-2,6-dimethylbenzene-sulfonamide], the inhibition at 10 µM in assay [1] and in assay [2] was 101% throughout.

For the molecule `COc1cc(C)c(S(=O)(=O)N(CCOCC(=O)N2CCn3c(CN4CCCC4)ccc3C2c2ccccc2)Cc2ccccc2)c(C)c1` (stereo not drawn) [Example 127, N-benzyl-4-methoxy-2,6-dimethyl-N-(2-(2-oxo-2-(1-phenyl-6-(pyrrolidin-1-ylmethyl)-3,4-dihydropyrrolo[1,2-a]pyrazin-2(1H)-yl)ethoxy)ethyl)benzene-sulfonamide], the inhibition at 10 µM was 102% in assay [1] and 99% in assay [2].

`COc1cc(C)c(S(=O)(=O)N(CCOCC(=O)N2CCn3cccc3C2c2ccc(Cl)nc2)CC(C)C)c(C)c1C` (stereo not drawn) [Example 20, N-(2-(2-(1-(6-chloropyridin-3-yl)-3,4-dihydropyrrolo[1,2-a]pyrazin-2(1H)-yl)-2-oxoethoxy)ethyl)-N-isobutyl-4-methoxy-2,3,6-trimethylbenzenesulfonamide]: the inhibition at 10 µM in assay [1] was 98%; in assay [2] it was 84%.
